According to patent US9498546B2, “Synthesis and application of novel imaging agents conjugated to DPA 713 analogs for imaging inflammation” (THE JOHNS HOPKINS UNIVERSITY, priority 2012, dated 2016):

Tested on: LPS-stimulated J774 macrophages (TSPO)
Assay: In vitro J774 murine macrophage uptake studies (fluorescence microscopy, with or without blocking)
Assay type: cell-based
Conditions: 40 nM probe, 1 hour of incubation
Method: FIG. 4 is a series of photomicrographs (A-I) of J774 macrophages that were cultured in 8 well chamber slides to 80% confluence. LPS was then added to each well for 24 hours to stimulate the cells. […] The cells were returned to the incubator for either 1 hour or 24 hours. The solutions were then removed, the nuclei were labeled with Hoechst 33342 and the cells were briefly washed before mounting and viewing under a fluorescence microscope.
In vitro J774 murine macrophage uptake studies. The immortalized J774 murine macrophage-like cell line was cultured in RPMI1640+20% FBS+1% penicillin+ streptomycin media in 8-well chamber slides (Fisher Scientific) to approximately 80% confluence. The cells were then stimulated with 1 ng/mL of LPS (Sigma, E. coli 055:B5) for 24 hours prior to addition of the probes of the present invention to 40 nM final concentration. […] The cells were exposed to the fluorescent probes and blocking compounds for either 1 hour or 24 hours prior to exposing to 1 ng/mL of Hoechst 33342 dye (Invitrogen), followed by washing twice briefly with PBS, pH 7.5. The chambers were then removed and the slide mounted with Dako Cytomation aqueous mounting media and a glass coverslip. The cells were visualized using a Nikon 80i upright epifluorescence microscope equipped with a Nikon DS-QilMc darkfield CCD camera and processed using Nikon Image Software on an adjacent workstation. The dyes were excited using either a Nikon Intensilight C-HGFI lamp (IRDye680 and Hoechst) or a Sutter Instruments Co. (Novato, Calif.) LB/LB-30 xenon lamp (IRDye800).
J774 Cell Uptake Studies. J774 macrophages were cultured in 8 well chamber slides to 80% confluence. LPS was then added to each well for 24 hours to stimulate the cells. […] The cells were returned to the incubator for either 1 hour or 24 hours. The solutions were then removed, the nuclei were labeled with Hoechst 33342 and the cells were briefly washed before mounting and viewing under a fluorescence microscope. […] The tracer localization for both analogs is perinuclear and granular in appearance and is consistent with the gross distribution pattern of TSPO expression in other mononuclear cell-derived lines.

CCN(CC)C(=O)Cc1c(-c2ccc(OCCNC(=O)CCCCC[N+]3=C(/C=C/C4=C(Oc5ccc(S(=O)(=O)O)cc5)C(=C/C=C5/N(CCCCS(=O)(=O)O)c6ccc(S(=O)(=O)O)cc6C5(C)C)/CCC4)C(C)(C)c4cc(S(=O)(=O)[O-])ccc43)cc2)nn2c(C)cc(C)nc12 [DPA-713-IRDye800CW, 1-(6-(2-(4-(3-(2-(diethylamino)-2-oxoethyl)-5,7-dimethylpyrazolo[1,5-a]pyrimidin-2-yl)phenoxy)ethylamino)-6-oxohexyl)-2-((E)-2-((E)-3-((E)-2-(3,3-dimethyl-5-sulfo-1-(4-sulfobutyl)indolin-2-ylidene)ethylidene)-2-(4-sulfophenoxyl)cyclohex-1-enyl)vinyl)-3,3-dimethyl-3H-indolium-5-sulfonate] was tested, and the “Observable fluorescence signal (uptake)” value was “almost no observable signal”.
